In ChEMBL document CHEMBL1201862, “PubChem BioAssay data set” (2004):
Activity calls are given as the source filed them.

How the values were obtained:
Cytochrome P450 3A4 = Cytochrome P450 3A4 (Homo sapiens, UniProt P08684);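 note: CYP3A4 tested as one member of a cytochrome P450 panel screen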
Cytochrome P450 2D6 = Cytochrome P450 2D6 (Homo sapiens, UniProt P10635);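 note: CYP2D6 member of a cytochrome P450 panel assay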
Cytochrome P450 1A2 = biological target: T1, Cytochrome P450 1A2 (Homo sapiens, UniProt P05177);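 note: PubChem cytochrome P450 panel assay, CYP1A2 panel member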
T1 sequence (P05177 whole entry): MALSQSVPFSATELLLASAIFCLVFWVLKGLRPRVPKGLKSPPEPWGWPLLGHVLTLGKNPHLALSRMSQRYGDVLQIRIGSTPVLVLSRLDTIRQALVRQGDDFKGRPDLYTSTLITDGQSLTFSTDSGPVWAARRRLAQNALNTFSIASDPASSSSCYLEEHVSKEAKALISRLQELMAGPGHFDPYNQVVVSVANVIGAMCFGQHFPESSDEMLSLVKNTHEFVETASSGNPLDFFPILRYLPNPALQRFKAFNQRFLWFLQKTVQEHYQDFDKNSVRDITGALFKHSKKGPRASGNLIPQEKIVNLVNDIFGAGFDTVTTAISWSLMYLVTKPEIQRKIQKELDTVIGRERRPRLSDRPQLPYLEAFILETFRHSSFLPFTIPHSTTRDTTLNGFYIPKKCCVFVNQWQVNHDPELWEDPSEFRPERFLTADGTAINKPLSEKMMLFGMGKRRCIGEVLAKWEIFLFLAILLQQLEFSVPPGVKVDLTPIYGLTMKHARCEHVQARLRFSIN

[1] = viability of PTEN-deleted HCT116 cells – cell-based, HCT116 PTEN knockout, dose response (AID 1047); format: functional;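 note: HCT116 colon tumor cells with PTEN knocked out; cells exposed to compound for 60 hours before readout; potency for loss of cell viability measured by luminescence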
[2] = viability of HCT116 lacking mutant beta-catenin – cell-based, human colon tumor, dose response (AID 1045); format: functional;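 note: HCT116 colon tumor cells with beta catenin knocked out; cells exposed to compound for 60 hours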
Cytochrome P450 2C9 = Cytochrome P450 2C9 (Homo sapiens, UniProt P11712)
Chain of Cytochrome P450 2C9 (P11712 whole entry): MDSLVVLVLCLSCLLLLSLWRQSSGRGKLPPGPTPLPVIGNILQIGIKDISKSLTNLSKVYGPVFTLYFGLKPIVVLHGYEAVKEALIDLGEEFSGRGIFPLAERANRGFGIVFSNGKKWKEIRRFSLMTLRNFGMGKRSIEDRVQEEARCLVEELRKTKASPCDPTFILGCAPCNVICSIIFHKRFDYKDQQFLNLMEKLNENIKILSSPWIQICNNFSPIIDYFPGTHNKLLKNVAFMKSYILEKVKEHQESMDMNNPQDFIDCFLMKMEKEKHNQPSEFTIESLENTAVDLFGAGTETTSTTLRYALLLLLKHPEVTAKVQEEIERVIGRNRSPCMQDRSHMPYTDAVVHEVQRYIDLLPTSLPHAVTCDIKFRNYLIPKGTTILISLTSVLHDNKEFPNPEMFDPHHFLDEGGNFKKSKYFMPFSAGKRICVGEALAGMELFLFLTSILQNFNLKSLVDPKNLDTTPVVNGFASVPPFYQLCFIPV

cells = format: functional
Streptokinase A = biological target: T2, Streptokinase A (Streptococcus pyogenes serotype M1, UniProt P10520); experiment: viability-normalized secreted streptokinase activity reduction – plasminogen activation absorbance, OD405, dose response (AID 1914); format: functional, Streptococcus pyogenes M1 GAS;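 note: secreted streptokinase activity via plasminogen activation per viability signal from cell pellet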
T2 sequence (P10520 whole entry): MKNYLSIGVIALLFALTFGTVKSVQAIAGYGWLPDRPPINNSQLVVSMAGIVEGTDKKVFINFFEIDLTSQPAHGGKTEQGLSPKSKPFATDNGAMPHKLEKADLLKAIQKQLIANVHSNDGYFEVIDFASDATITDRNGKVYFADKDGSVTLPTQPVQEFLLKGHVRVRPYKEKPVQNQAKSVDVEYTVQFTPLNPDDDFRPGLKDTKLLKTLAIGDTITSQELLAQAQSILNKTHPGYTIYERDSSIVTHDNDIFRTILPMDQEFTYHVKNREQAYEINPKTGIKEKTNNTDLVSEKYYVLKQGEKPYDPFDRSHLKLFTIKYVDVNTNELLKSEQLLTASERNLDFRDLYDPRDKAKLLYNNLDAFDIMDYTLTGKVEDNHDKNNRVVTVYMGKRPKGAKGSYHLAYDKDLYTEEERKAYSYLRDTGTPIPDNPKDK

[3] = biological target: T3, Calpain-2 catalytic subunit (Sus scrofa, UniProt P43367); experiment: m-calpain protease blockers, concentration series – biochemical, fluorogenic peptide substrate, dose response (AID 1420); format: functional
T3 sequence (P43367 whole entry): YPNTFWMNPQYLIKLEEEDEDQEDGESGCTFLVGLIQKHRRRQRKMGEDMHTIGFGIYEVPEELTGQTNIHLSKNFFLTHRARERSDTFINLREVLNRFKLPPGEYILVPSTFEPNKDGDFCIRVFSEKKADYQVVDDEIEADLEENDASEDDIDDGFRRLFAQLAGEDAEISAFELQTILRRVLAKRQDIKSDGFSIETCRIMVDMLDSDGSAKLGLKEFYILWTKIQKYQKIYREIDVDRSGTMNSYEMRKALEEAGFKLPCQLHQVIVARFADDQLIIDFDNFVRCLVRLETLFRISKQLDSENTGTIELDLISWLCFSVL

Chain of Cytochrome P450 2D6 (P10635 whole entry): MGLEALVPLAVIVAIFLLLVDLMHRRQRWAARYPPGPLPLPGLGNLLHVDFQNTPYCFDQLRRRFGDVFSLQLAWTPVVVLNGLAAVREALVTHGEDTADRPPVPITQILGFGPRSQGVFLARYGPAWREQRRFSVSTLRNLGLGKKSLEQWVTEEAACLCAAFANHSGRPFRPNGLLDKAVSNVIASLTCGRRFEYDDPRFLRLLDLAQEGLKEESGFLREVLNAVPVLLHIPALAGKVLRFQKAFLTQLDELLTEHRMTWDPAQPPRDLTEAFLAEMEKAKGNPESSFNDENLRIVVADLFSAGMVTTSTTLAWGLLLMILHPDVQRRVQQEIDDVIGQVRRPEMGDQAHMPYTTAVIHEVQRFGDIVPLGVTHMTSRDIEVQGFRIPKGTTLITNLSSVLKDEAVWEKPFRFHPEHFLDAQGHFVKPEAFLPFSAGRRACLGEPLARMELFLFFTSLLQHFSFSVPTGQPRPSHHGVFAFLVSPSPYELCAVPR
Chain of Cytochrome P450 3A4 (P08684 whole entry): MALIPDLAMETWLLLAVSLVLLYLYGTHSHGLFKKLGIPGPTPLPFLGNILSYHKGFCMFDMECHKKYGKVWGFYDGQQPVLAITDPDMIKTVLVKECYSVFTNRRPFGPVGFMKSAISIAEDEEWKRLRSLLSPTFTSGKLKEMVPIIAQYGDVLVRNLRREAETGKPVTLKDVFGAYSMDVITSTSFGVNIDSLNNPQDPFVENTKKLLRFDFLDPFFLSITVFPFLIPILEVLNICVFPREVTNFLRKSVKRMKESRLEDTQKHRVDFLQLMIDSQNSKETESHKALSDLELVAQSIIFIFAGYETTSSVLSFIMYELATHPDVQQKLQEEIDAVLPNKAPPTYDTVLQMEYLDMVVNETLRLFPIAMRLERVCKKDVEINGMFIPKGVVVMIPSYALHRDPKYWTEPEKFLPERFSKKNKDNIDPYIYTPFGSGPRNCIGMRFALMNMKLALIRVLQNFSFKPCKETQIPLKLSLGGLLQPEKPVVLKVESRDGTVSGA

| SMILES | AC50 (Cytochrome P450 3A4) | AC50 (Cytochrome P450 1A2) | further results |
| --- | --- | --- | --- |
| CC(C)Oc1cccnc1N(C)C1CCN(Cc2ccccc2)CC1 | 15.8 µM (inconclusive) | – | – |
| O=c1c(-c2ccc(F)cc2)nc2cnc(N3CCOCC3)nc2n1Cc1ccc(F)cc1 | – | 20 µM (inconclusive) | AC50 (Cytochrome P450 2D6): 39.8 µM (inconclusive) |
| NS(=O)(=O)c1ccc(/N=N\c2nc3c(O)nc(O)nc3[nH]2)cc1 | 0.631 µM (inconclusive) | – | – |
| N#CCCn1c(=O)c(-c2ccc(Cl)cc2)nc2cnc(N3CCNCC3)nc21 | 25.1 µM (inconclusive) | – | – |
| O=C(Nc1cccc(C(F)(F)F)c1)N(Cc1ccc(Cl)cc1)CC(O)C(F)(F)F (configuration not stated) | 22.4 µM (inconclusive) | – | EC50 [1]: 19.6 µM (active); EC50 [2]: 23.8 µM (active) |
| O=C(Nc1cccc(Br)c1)/C(=C\c1cccnc1)NC(=O)c1ccco1 | – | 31.6 µM (inconclusive) | AC50 (Cytochrome P450 2C9): 39.8 µM (inconclusive) |
| Cc1nc2ncnn2c(C)c1CCC(=O)NCCC1=CCCCC1 | 15.8 µM (inconclusive) | – | AC50 (Cytochrome P450 2C9): 14.1 µM (inconclusive) |
| COc1ccc2cc(C(=O)C3CCCN(Cc4ccccn4)C3)ccc2c1 (configuration not stated) | – | – | IC50 (cells): 5.03 µM (active) |
| CC(C)N1CCC(=NNC(=O)c2ccc(Br)o2)CC1 | – | 17.8 µM (inconclusive) | AC50 (Cytochrome P450 2D6): 10 µM (inconclusive) |
| COc1ccc(OC)c(NC(=O)CC(Cc2ccccc2OC)C(=O)O)c1 (configuration not stated) | – | 0.0316 µM (inconclusive) | – |
| CC1(C)CO[C@H](CC(=O)O)CN1 | – | 31.6 µM (inconclusive) | AC50 (Cytochrome P450 2C9): 39.8 µM (inconclusive) |
| COc1ccc(C(=O)N2CCC3(CCCN(c4ncccn4)C3)CC2)cc1 | 39.8 µM (inconclusive) | 20 µM (inconclusive) | AC50 (Cytochrome P450 2D6): 31.6 µM (inconclusive) |
| Cn1c(=O)c2[nH]c(SCCN3CCOCC3)nc2n(C)c1=S | 3.16 µM (inconclusive) | 0.631 µM (inconclusive) | AC50 (Cytochrome P450 2C9): 6.31 µM (inconclusive) |
| Cc1cccc(Cc2cnc(NC(=O)C3=NCCN3)s2)c1 | – | – | IC50 (cells): 4.6 µM (active) |
| COc1cccc(C2C3=C(CC(C)(C)CC3=O)OC(N)=C2[N+](=O)[O-])c1 (configuration not stated) | 15.8 µM (inconclusive) | – | AC50 (Cytochrome P450 2C9): 12.6 µM (inconclusive) |
| O=C(SCc1cccc2ccccc12)c1ccc(Cl)cc1 | – | 0.794 µM (inconclusive) | – |
| COCc1c(C(N)=O)nnn1-c1nonc1N | – | 25.1 µM (inconclusive) | – |
| O=[N+]([O-])c1cc(C(F)(F)F)ccc1NCCNC(=S)Nc1ccc(Cl)cc1 | – | – | EC50 (Streptokinase A): > 150 µM (not active); IC50 [3]: 7.92 µM (not active) |
| COc1cc2c(cc1OC)CN(CCC(=O)c1ccc(Br)cc1)CC2 | – | – | IC50 (cells): 16.5 µM (active) |
| CC1(C)S[C@@H]2[C@H](C(=O)O)N=C(Cc3ccccc3)N2[C@H]1C(=O)O | – | 6.31 µM (inconclusive) | – |
| O=c1c(-c2ccccc2)nc2cnc(N3CCOCC3)nc2n1Cc1cccs1 | – | 2.51 µM (inconclusive) | AC50 (Cytochrome P450 2C9): 20 µM (inconclusive) |
| CCOC(=O)COc1ccc2c(=O)c(-c3ccccc3)coc2c1 | – | – | IC50 (cells): < 0.1 µM (active) |
| COc1ccc(Oc2nc(C)cc(C)c2S(=O)(=O)c2ccc(C)cc2)cc1 | 1.12 µM (inconclusive) | – | – |
| O=C(Nc1ccccc1)N1CC[C@@]2(CCCN(C(=O)c3cccc(F)c3)C2)C1 | 25.1 µM (inconclusive) | – | – |
| Cc1noc(NS(=O)(=O)c2ccc(NC(=O)c3ccc(Br)o3)cc2)c1C | 39.8 µM (inconclusive) | – | AC50 (Cytochrome P450 2C9): 14.1 µM (inconclusive) |
| COc1ccccc1CNCc1cccs1 | 17.8 µM (inconclusive) | – | – |
| N[C@H](C(=O)O)c1cccc(O)c1 | – | 39.8 µM (inconclusive) | – |
